Patent publication US20070275382A1, “Biomarkers for the Efficacy of Somatostatin Analogue Treatment” (priority 2003, published 2007)
*1 amine or outer side, *2 acyl side, *3 side chain or, on linkers, in order; H or OH if unused. Where a SMILES comes first, the peptide text is derived from it. Side-chain parts run from the residue outwards. [ ]: non-standard residue; d: D form. The star is where a group is joined. Ethylenediamine = C(CN[*:2])N[*:1]; Hyp = O=C(O)[CH]1C[CH](O)CN1; Phg = N[CH](C(=O)O)c1ccccc1; CO = O=C([*:1])[*:2]; Bn = c1ccc(C*)cc1

Tested on: Liver left lateral lobe
Test: Microarray gene expression profiling (HG-U95A), liver
Assay type: in vivo, cynomolgus monkeys
Description: Origin of tissue and processing. Male and female cynomolgus monkeys received subcutaneously pasireotide (100 μg/animal/day) or the vehicle for 14 days. On day 15, all animals were sacrificed and tissues for RNA extraction were immediately snap-frozen and kept at −80° C. until processing.
RNA expression profiling was conducted by means of the HG-U95A gene expression probe array (Affymetrix; Santa Clara, Calif. USA), containing more than 12,600 probe sets interrogating primarily full-length human genes and also some control probe sets. The experiment was conducted according to the recommendations of the manufacturer. Briefly, total RNA was obtained by acid guanidinium thiocyanate-phenol-chloroform extraction (Trizol®, Invitrogen Life Technologies, San Diego, Calif. USA) from each frozen tissue section. The total RNA was then purified on an affinity resin (Rneasy®, Qiagen) and quantified. Double stranded cDNA was synthesized with a starting amount of approximately 5 μg full-length total RNA using the Superscript® Choice System (Invitrogen Life Technologies, Carlsbad, Calif. USA) in the presence of a T7-(dT)24 DNA oligonucleotide primer. Following synthesis, the cDNA was purified by phenol/chloroform/isoamyl alcohol extraction and ethanol precipitation. The purified cDNA was then transcribed in vitro using the BioArray® High Yield RNA Transcript Labeling Kit (ENZO, Farmingdale, N.Y. USA) in the presence of biotinylated ribonucleotides form biotin labelled cRNA. The labelled cRNA was then purified on an affinity resin (Rneasy®, Qiagen), quantified and fragmented. An amount of approximately 10 μg labelled cRNA was hybridized for 16 hours at 45° C. to an expression probe array. The array was then washed and stained twice with streptavidin-phycoerythrin (Molecular Probes,) using the GeneChip® Fluidics Workstation 400 (Affymetrix, Santa Clara, Calif. USA). The array was then scanned twice using a confocal laser scanner (GeneArray® Scanner, Agilent, Palo Alto, Calif. USA) resulting in one scanned image. This resulting “.dat-file” was processed using the MAS4 program (Affymetrix) into a “.cel-file”. The “.cel file” was captured and loaded into the Affymetrix GeneChip® Laboratory Information Management System (LIMS). The LIMS database is connected to a UNIX Sun Solaris server through a network filing system that allows for the average intensities for all probes cells (CEL file) to be downloaded into an Oracle database (NPGN). Raw data was converted to expression levels using a “target intensity” of 150. The data were evaluated for quality control and loaded in the GeneSpring® software 4.2.4 (Silicon Genetics, Calif. USA) for analysis.
On the human Affymetrix HGU95Av2 chip, probe sets for individual genes contain 20 oligonucleotide pairs, each composed of a “perfect match” 25-mer and a “mismatch” 25-mer differing from the “perfect” match oligonucleotide at a single base. After probe labelling, hybridization, and laser scanning, the expression level was estimated by averaging the differences in signal intensity measured by oligonucleotide pairs of a given probe (AvgDiff value). The fold changes and directions were calculated for selected genes, from the differences of the AvgDiff values between controls and treated.
To identify genes that were impacted by pasireotide, the dataset was initially filtered to exclude in a first wave of analysis, genes whose values were systematically in the lower expression ranges where the experimental noise is high (at least 80 in a number of experiments corresponding to the smallest number of replicas of any experimental point). In a second round of selection a threshold p-value of 0.05 (based on a t-test) identified differences between treated and control based on a two component error model (Global Error Model) and, whenever possible, with a stepdown correction for multi-hypothesis testing (Benjamini and Hochberg false discovery rate). […]

[1] = ↑ increase, treated vs controls
[2] = ↓ decrease, treated vs controls

SMILES: NCCCCC1NC(=O)C(Cc2c[nH]c3ccccc23)NC(=O)C(c2ccccc2)NC(=O)C2CC(OC(=O)NCCN)CN2C(=O)C(Cc2ccccc2)NC(=O)C(Cc2ccc(OCc3ccccc3)cc2)NC1=O (stereo not drawn) [Pasireotide, cyclo[4-(NH2—C2H4—NH—CO—O)Pro-Phg-DTrp-Lys-Tyr(4-Bzl)-Phe]] (cyclo(F[Hyp]([CO-Ethylenediamine])[Phg]WKY(Bn)); configuration not given here)
- GR expression level, AvgDiff (range) (0.1 mg/animal/14day): 80 (70 to 360)
- IGF-2 expression level, AvgDiff (range) (0.1 mg/animal/14day): 269 (224 to 291)
- IGFBP2 expression level, AvgDiff (range) (0.1 mg/animal/14day): 4,476 (3,191 to 5,422)
- Insulin promoter factor 1, homeodomain transcription factor expression level, AvgDiff (range) (0.1 mg/animal/14day): 42 (23 to 52)
- 5-hydroxytryptamine (serotonin) receptor 6 RNA expression fold change [1]: receptor 6 ↑ x2.5
- Adenylyl cyclase-associated protein RNA expression fold change [1]: ↑ x1.5
- Arginine vasopressin receptor 2 RNA expression fold change [1]: receptor 2 ↑ x2.5
- B lymphoid tyrosine kinase RNA expression fold change [1]: ↑ x3.5
- Bone-derived GF RNA expression fold change [1]: ↑ x3
- Bruton agamma globulinaemia tyrosine kinase RNA expression fold change [1]: ↑ x1.5
- Butyrate response factor 2 (EGF-response factor 2) RNA expression fold change [1]: factor 2) ↑ x2
- Calcium/calmodulin-dependent protein kinase kinase 2, β RNA expression fold change [1]: ↑ x3
- Calmodulin 2 (phosphorylase kinase, δ) RNA expression fold change [1]: kinase, δ) ↑ x2
- Cdk 5, regulatory subunit 1 RNA expression fold change [1]: subunit 1 ↑ x2.5
- Cdki1A (p21/Cip1) RNA expression fold change [1]: (p21/Cip1) ↑ x6
- Corticosteroid binding globulin precursor RNA expression fold change [1]: precursor ↑ x2
- DAG kinase, α (80 kD) RNA expression fold change [1]: (80 kD) ↑ x3
- DAG kinase, δ (130 kD) RNA expression fold change [1]: ↑ x1.5
- Dopamine receptor D2 RNA expression fold change [1]: receptor D2 ↑ x3.5
- Dopamine receptor D3 RNA expression fold change [1]: receptor D3 ↑ x2
- EGFR (avian erythroblastic leukaemia viral (v-erb-b) oncogene homolog) RNA expression fold change [1]: homolog) ↑ x2
- FGFR2 (bacteria-expressed kinase, keratinocyte growth factor receptor, craniofacial dysplasia) RNA expression fold change [1]: dysplasia) ↑ x2
- Fas-activated serine/threonine kinase RNA expression fold change [1]: kinase ↑ x1.5
- GABA (A) receptor, γ2 precursor RNA expression fold change [1]: precursor ↑ x4
- GABA(A) receptor-associated protein RNA expression fold change [1]: ↑ x1.5
- GCSF RNA expression fold change [1]: GCSF ↑ x3.5
- Glucacon receptor RNA expression fold change [1]: receptor ↑ x5
- Glutamate receptor, metabotropic 4 RNA expression fold change [1]: ↑ x1.5
- Growth differentiation factor 1 RNA expression fold change [1]: factor 1 ↑ x3
- IFN regulatory factor 5 RNA expression fold change [1]: factor 5 ↑ x2.5
- IFN-induced leucine zipper protein RNA expression fold change [1]: ↑ x1.5
- IFN-inducible RNA-dependent protein kinase RNA expression fold change [1]: kinase ↑ x4
- IFNγ responsive transcript RNA expression fold change [1]: transcript ↑ x1.5
- IGFBP2 RNA expression fold change [1]: IGFBP2 ↑ x2
- IL2 R, γ chain, precursor RNA expression fold change [1]: precursor ↑ x2.5
- IP 5-phosphatase RNA expression fold change [1]: phosphatase ↑ x2
- Natriuretic peptide receptor A/guanylate cyclase A (atrionatriuretic peptide receptor A) RNA expression fold change [1]: A) ↑ x6
- Nck, Ash and PLC γ binding protein NAP4 RNA expression fold change [1]: ↑ x3.5
- PDGF, α polypeptide RNA expression fold change [1]: polypeptide ↑ x1.5
- PDGFR, α polypeptide RNA expression fold change [1]: polypeptide ↑ x2
- PI transfer protein RNA expression fold change [1]: protein ↑ x3.5
- PKC substrate 80K-H RNA expression fold change [1]: 80K-H ↑ x1.5
- PLA2, group IIA (platelets, synovial fluid) RNA expression fold change [1]: fluid) ↑ x5.5
- PLC, γ 1 (formerly subtype 148) RNA expression fold change [1]: 148) ↑ x2
- Rb binding protein RNA expression fold change [1]: protein ↑ x2.5
- Rb-like 2 (p130) RNA expression fold change [1]: (p130)↑ x3
- Receptor (calcitonin) activity modifying protein 1 precursor RNA expression fold change [1]: 1 precursor ↑ x1.5
- Solute carrier family 9 (sodium/hydrogen exchanger), isoform 3 regulatory factor 1 RNA expression fold change [1]: ↑ x11.5
- Solute carrier family 11 (Na+/phosphate symporters), member 1 RNA expression fold change [1]: member 1 ↑ x2.5
- TGFβ activated kinase-binding protein 1 RNA expression fold change [1]: protein 1 ↑ x2.5
- THR interacting protein 15 RNA expression fold change [1]: protein 15 ↑ x1.5
- THR sulfo transferase RNA expression fold change [1]: transferase ↑ x2.5
- TNF (ligand) superfamily, member 10 RNA expression fold change [1]: 10 ↑ x1.5
- δ sleep inducing peptide, immunoreactor RNA expression fold change [1]: ↑ x2.5
- 1-PI-4-phosphate 5-kinase isoform C RNA expression fold change [2]: ↓ x2
- ATPase, H+/K+ exchanging, beta polypeptide RNA expression fold change [2]: polypeptide ↓ x2
- BCL2-like 1 RNA expression fold change [2]: ↓ x3.5
- Ca++ channel, voltage-dependent, P/Q type, alpha 1A subunit RNA expression fold change [2]: subunit ↓ x2.5
- Cdk like-2 RNA expression fold change [2]: Cdk like-2 ↓ x2
- Cdki 2D (p19, inhibits CDK4) RNA expression fold change [2]: ↓ x2.5
- Death-associated protein 6 RNA expression fold change [2]: ↓ x2.5
- EGF (β-urogastrone) RNA expression fold change [2]: ↓ x2.5
- EGF-like repeats and discoidin I-like domains 3 RNA expression fold change [2]: domains 3 ↓ x1.5
- Fms-related tyrosine kinase 1(VEGF/vascular permeability factor receptor) RNA expression fold change [2]: receptor) ↓ x1.5
- GFR-bound protein 2 RNA expression fold change [2]: protein 2 ↓ x2.5
- Glycosylphosphatidylinositol specific phospholipase D1 RNA expression fold change [2]: ↓ x1.5
- IFN-related developmental regulator 2 RNA expression fold change [2]: regulator 2 ↓ x1.5
- IFN-stimulated protein, 15 kDa RNA expression fold change [2]: protein, 15 kDa ↓ x2
- IGF-2 RNA expression fold change [2]: IGF-2 ↓ x2.5
- Insulin promoter factor 1, homeodomain transcription factor RNA expression fold change [2]: ↓ x1.5
- PI transfer protein, β RNA expression fold change [2]: protein, β ↓ x1.5
- PKC, ι RNA expression fold change [2]: PKC, ι ↓ x1.5
- Rb 1 (including osteosarcoma) RNA expression fold change [2]: ↓ x2
- TGF, β1 RNA expression fold change [2]: TGF, β1 ↓ x1.5
- TGFβR III (betaglycan, 300 kδ) RNA expression fold change [2]: 300 kδ) ↓ x2
- TNF-α converting enzyme RNA expression fold change [2]: enzyme ↓ x2
